US20250312360A1, “MITOCHONDRIAL ANTIOXIDANT TREATMENT FOR CASK-LINKED NEURODEVELOPMENTAL DISORDERS” (Virginia Tech Intellectual Properties, Inc., priority 2022, published 2025)
“Also recorded” adds a separate entry of the source.

Legend:
[1] = tested on: CASK^floxed; Calb2-cre mice; assay: Cerebellar atrophy/degeneration after CASK deletion in cerebellum, images of cerebellum with SkQ1 treatment; type: in vivo
From the text: (§1) FIG. 5A-5B.-Blocking mitochondrial ROS protects cerebellum from degenerating in absence of CASK. […] Cerebellum undergoes atrophy after P30. […] (FIG. 5B) Cerebellum undergoes atrophy in CASK^floxed; Calb2-cre mice leading to locomotor incoordination. The data represents latency time to fall in an accelerating rotarod experiment on P70. CASK^floxed. […] Data represents mean and SEM from n=3. * indicates p≤ 0.05.
With no evidence for a defect in neuronal development and biochemical evidence for mitochondrial ROS mediated neuronal death, Applicant next decided to determine if CASK loss results in the degeneration of formed neurons. In the human brain without CASK, Applicant observed astrogliosis as well as microgliosis, both hallmarks of neuronal damage and neuronal loss (Patel, Hegert et al., 2022). In the setting of a human brain without CASK, the presumptive neuronal loss occurs during the early development of the cerebellum, making it hard to further interpret the results. […]

[2] = tested on: CASK^floxed; Calb2-cre mice; assay: Accelerating rotarod experiment (locomotor coordination/balance); type: in vivo; settings: P70, n=3, p≤0.05, untreated mice cannot balance on rotarod, FIG. 5B
From the text: as §1

## CC1=C(C)C(=O)C(CCCCCCCCCC[P+](c2ccccc2)(c2ccccc2)c2ccccc2)=CC1=O [SkQ1, 10-(6′-Plastoquinonyl)decyltriphenylphosphonium]
[1]; CASK^floxed, untreated cerebellum atrophies after P30 (P30 vs P100 images), FIG. 5A right panel SkQ1-treated
  cerebellar atrophy (images of cerebellum): rescue of cerebellar atrophy
[1]; CASKfloxed, summary statement on FIG. 5A-5B
  cerebellar degeneration / neurodegeneration caused by CASK deletion: can halt CASK-linked cerebellar degeneration; also recorded: effectively inhibits neurodegeneration resulting from CASK-loss
[2]
  latency time to fall in accelerating rotarod experiment (balance): balance is completely rescued
